{"source": "patent US5243042A", "about": "“1-thiaguanosine and process for preparing oxanosine and 1-thiaguanosine” (Hoffmann-La Roche Inc., priority 1990, dated 1993)", "assay_in_all_cases": "MIC by agar dilution method, minimal agar medium", "assay_type_in_all_cases": "cell-based", "key": {"E. coli 257": {"system": "E. coli 257", "settings": "Escherichia coli, over-night incubation at 36° C., read-out: MIC (minimum inhibitory concentration)", "procedure": "(§1) To avoid possible antimetabolite reversal, a minimal agar medium^2 was employed. Inoculum was grown over-night at 36° C. in minimal broth medium and diluted a hundred-fold before use. Agar plates containing a serial dilution of the compounds of formula Ia were inoculated using a Steer's replicator. Approximately 3 μL was applied per spot. MICs were recorded after over-night incubation at 36° C.\n(§2) ^1 Barry, A. L., Procedure for Testing Antimicrobial Agents in Agar Media: Theoretical Considerations, p. 1-26. In Victor Lorian (Ed.), Antibiotics in Laboratory Medicine, 2nd ed. The Williams & Wilkins Co., Baltimore.\n(§3) ^2 Davis, B. D.; Mingioli, E. S. J. BACTERIOL. 1950, 60, 17-28.\n(§4) The minimum inhibitory concentrations of 1-thiaguanosine, the compound of formula Ia, against various bacteria were as follows: […]"}, "E. coli 2721B": {"system": "E. coli 2721B", "settings": "Escherichia coli, over-night incubation at 36° C., read-out: MIC (minimum inhibitory concentration)", "procedure": "as §1, §2, §3, §4"}, "E. coli 94": {"system": "E. coli 94", "settings": "Escherichia coli, over-night incubation at 36° C., read-out: MIC (minimum inhibitory concentration)", "procedure": "as §1, §2, §3, §4"}, "E. coli ATCC 25922": {"system": "E. coli ATCC 25922", "settings": "Escherichia coli, ATCC25922, over-night incubation at 36° C., read-out: MIC (minimum inhibitory concentration)", "procedure": "as §1, §2, §3, §4"}, "E. coli B": {"system": "E. coli B", "settings": "Escherichia coli, over-night incubation at 36° C., read-out: MIC (minimum inhibitory concentration)", "procedure": "as §1, §2, §3, §4"}, "Prov. rettgeri ATTC 9250": {"system": "Prov. rettgeri ATTC 9250", "settings": "Providencia rettgeri, ATTC9250, over-night incubation at 36° C., read-out: MIC (minimum inhibitory concentration)", "procedure": "as §1, §2, §3, §4"}, "[1]": {"system": "S. typhimurium ATTC 13311", "settings": "Salmonella enterica, over-night incubation at 36° C., read-out: MIC (minimum inhibitory concentration)", "procedure": "as §1, §2, §3, §4"}, "S. typhimurium LT-2": {"system": "S. typhimurium LT-2", "settings": "Salmonella enterica, over-night incubation at 36° C., read-out: MIC (minimum inhibitory concentration)", "procedure": "as §1, §2, §3, §4"}}, "data": [{"molecule": "Nc1nc2c(ncn2[C@@H]2O[C@H](CO)[C@@H](O)[C@H]2O)c(=O)s1", "note": "[1-thiaguanosine, 5-amino-3-(β-D-ribofuranosyl)imidazo[4,5-d][1,3]thiazin-7(3H)-one]", "values": [{"measurement": "MIC", "setting": "E. coli 257", "result": 16, "unit": "µg/mL"}, {"measurement": "MIC", "setting": "E. coli 2721B", "result": 128, "unit": "µg/mL"}, {"measurement": "MIC", "setting": "E. coli 94", "result": 32, "unit": "µg/mL"}, {"measurement": "MIC", "setting": "E. coli ATCC 25922", "result": 128, "unit": "µg/mL"}, {"measurement": "MIC", "setting": "E. coli B", "result": 128, "unit": "µg/mL"}, {"measurement": "MIC", "setting": "Prov. rettgeri ATTC 9250", "result": 4, "unit": "µg/mL"}, {"measurement": "MIC", "setting": "[1]", "result": 8, "unit": "µg/mL"}, {"measurement": "MIC", "setting": "S. typhimurium LT-2", "result": 8, "unit": "µg/mL"}]}]}
